Experimental data published in PMC11820896, “New Compounds with Enhanced Biological Activity Through the Strategic Introduction of Silylated Groups into Hydroxystearic Acids” (Molecules, 2025).

System: HT29 cells
Experiment: Western blot of tyrosine residue phosphorylation
Type: cell-based, human
Settings: most at proteins above 50 KDa
Experimental: HT29 cells were seeded at a density of 5.0 × 10^4 cells/cm^2 in a Petri dish and treated with 50 nM of compound 4 for 48 h. Cells were then washed with PBS and incubated with the lysis buffer radio immunoprecipitation assay (RIPA) at 4 °C for 15 min with agitation. The proteins were quantified using the Bio-Rad protein assay (Bio-Rad, Hercules, CA, USA) and analyzed by SDS-PAGE and Western blot.
For the analysis of protein phosphorylation, protein samples (30 μg) were separated on 12% SDS-PAGE in Tris-glycine buffer by electrophoresis at 200 V for 1 h. […] Densitometric analysis was performed with ImageLab 6.1 software (Bio-Rad, Hercules, CA, USA), and bands were normalized to the respective total protein content. For SCD1 analysis, protein samples were resolved on a 10% gel in MOPS buffer at 200 V for 45 min. After electrophoresis and Western blot, the nitrocellulose membrane was incubated overnight at 4 °C with primary antibody anti-SCD1 (Biorbyt, Durham, NC, USA) diluted in PBS-TWEEN 20 0.1%. The membrane was incubated for 1 h with a secondary horseradish peroxidase-conjugated antibody (GE Healthcare, Chicago, IL, USA) and then detected as described above. Quantification was completed by a Fluor-S Max MultiImager (Bio-Rad, Hercules, CA, USA) using a β-tubulin signal as a control.

In the case of `CCCCCCCCC[C@H](CCCCCCCC(=O)O)O[Si](C)(C)C(C)(C)C` [Compound 4, (R)-9-((tert-butyldimethylsilyl)oxy)octadecanoic acid], the “phosphorylation levels at tyrosine residues of proteins” value is reported as “decrease in phosphorylation levels”.
